According to PubChem BioAssay AID214 (DTP/NCI, 2004):
Where “and” joins values, the source holds several entries; their conditions need not be identical. Equal entries are not always repeated. Results filed as inconclusive are left out.

System: B6C3F1 mice, colon carcinoma 38 s.c., T/C
Assay: NCI In Vivo Anticancer Drug Screen. Data for tumor model Colon Carcinoma 38 (subcutaneous) in B6C3F1 mice
Details: higher = larger tumour
Protocol: The antitumor activity of compounds was measured in mice bearing transplantable tumors. Survival or tumor size were measured and the results are expressed as the measurement made in the treated group (T) divided by the measurement made in the vehicle treated control group (C). The tumor model used in this assay is Colon Carcinoma 38 (subcutaneous) in B6C3F1 mice

[1] = endpoint: median tumor weight (est.), dose: 25.0 mg/kg/injection, schedule: Q07DX002 (ip), vehicle: saline with Tween-80
[2] = endpoint: median tumor weight (est.), dose: 50.0 mg/kg/injection, schedule: Q07DX002 (ip), vehicle: saline with Tween-80
[3] = endpoint: median tumor weight (est.), dose: 100.0 mg/kg/injection, schedule: Q07DX002 (ip), vehicle: saline with Tween-80
[4] = endpoint: median tumor weight (est.), dose: 200.0 mg/kg/injection, schedule: Q07DX002 (ip), vehicle: saline with Tween-80
[5] = endpoint: median tumor weight (est.), dose: 50.0 mg/kg/injection, schedule: Q07DX002 (ip), vehicle: suspension in saline
[6] = endpoint: median tumor weight (est.), dose: 100.0 mg/kg/injection, schedule: Q07DX002 (ip), vehicle: suspension in saline
[7] = endpoint: median tumor weight (est.), dose: 6.25 mg/kg/injection, schedule: Q07DX002 (ip), vehicle: saline with Tween-80
[8] = endpoint: median tumor weight (est.), dose: 50.0 mg/kg/injection, schedule: Q07DX002 (ip), vehicle: water
[9] = endpoint: median tumor weight (est.), dose: 100.0 mg/kg/injection, schedule: Q07DX002 (ip), vehicle: water

**Q.** What does the source list for `Nc1ccc2c(c1)CN1C(=O)c3ccccc3C1=N2`?
**A.** T/C (endpoint: median tumor weight (est.), dose: 6.25 mg/kg/injection, schedule: Q01DX008 (ip), vehicle: other): 90 % of control; T/C (endpoint: median tumor weight (est.), dose: 12.5 mg/kg/injection, schedule: Q01DX008 (ip), vehicle: other): 69 % of control; T/C (endpoint: median tumor weight (est.), dose: 25.0 mg/kg/injection, schedule: Q01DX008 (ip), vehicle: other): 58 % of control; T/C (endpoint: median tumor weight (est.), dose: 25.0 mg/kg/injection, schedule: Q07DX002 (ip), vehicle: other): 82 % of control and 92 % of control; T/C [1]: 60 % of control; T/C (endpoint: median tumor weight (est.), dose: 50.0 mg/kg/injection, schedule: Q01DX008 (ip), vehicle: other): 21 % of control; T/C [2]: 56 % of control; T/C (endpoint: median tumor weight (est.), dose: 100.0 mg/kg/injection, schedule: Q07DX002 (ip), vehicle: other): 49 % of control; T/C [3]: 60 % of control; T/C (endpoint: median tumor weight (est.), dose: 200.0 mg/kg/injection, schedule: Q07DX002 (ip), vehicle: other): 1 % of control; T/C [4]: 35 % of control; T/C (endpoint: median tumor weight (est.), dose: 355.9 mg/kg/injection, schedule: Q07DX002 (oral), vehicle: DMSO): 74 % of control; T/C (endpoint: median tumor weight (est.), dose: 533.6 mg/kg/injection, schedule: Q07DX002 (oral), vehicle: DMSO): 94 % of control; T/C (endpoint: median tumor weight (est.), dose: 800.0 mg/kg/injection, schedule: Q07DX002 (oral), vehicle: DMSO): 76 % of control; T/C (endpoint: median tumor weight (est.), dose: 1200.0 mg/kg/injection, schedule: Q07DX002 (oral), vehicle: DMSO): 122 % of control; T/C (endpoint: optimum tumor weight change, dose: 86.0 mg/kg/injection, schedule: Q07DX002 (ip), vehicle: saline with Tween-80): 77 % of control; T/C (endpoint: optimum tumor weight change, dose: 144.0 mg/kg/injection, schedule: Q07DX002 (ip), vehicle: saline with Tween-80): 84 % of control; T/C (endpoint: optimum tumor weight change, dose: 240.0 mg/kg/injection, schedule: Q07DX002 (ip), vehicle: saline with Tween-80): 84 % of control; T/C (endpoint: optimum tumor weight change, dose: 400.0 mg/kg/injection, schedule: Q07DX002 (ip), vehicle: saline with Tween-80): 71 % of control

**Q.** For `Nc1nc(N)c2cc(S(=O)(=O)c3ccccc3)ccc2n1`, which T/C [2] is on record?
**A.** 62 % of control

**Q.** And the T/C [3]?
**A.** 45 % of control

**Q.** What about the T/C [4] of the same compound?
**A.** 44 % of control

**Q.** What about the T/C (endpoint: median tumor weight (est.), dose: 400.0 mg/kg/injection, schedule: Q07DX002 (ip), vehicle: saline with Tween-80) of the same compound?
**A.** 24 % of control

**Q.** For `CCC(C(=O)O)C(=O)O.[NH2-].[NH2-].[Pt+2]`, which T/C [5] is on record?
**A.** 61 % of control

**Q.** And the T/C [6]?
**A.** 45 % of control

**Q.** And the T/C (endpoint: median tumor weight (est.), dose: 200.0 mg/kg/injection, schedule: Q07DX002 (ip), vehicle: saline)?
**A.** 62 % of control

**Q.** Which T/C (endpoint: median tumor weight (est.), dose: 4.0 mg/kg/injection, schedule: Q07DX002 (ip), vehicle: Klucel (hydroxypropylcellulose) (HPC)) does the source give for `CC1CC(C)CC(C)C(O)/C(C#N)=C/C=C/CC(C2CCCC2C(=O)O)OC(=O)CC(O)C(C)C1` (stereo not given) here?
**A.** 83 % of control

**Q.** And the T/C (endpoint: median tumor weight (est.), dose: 8.0 mg/kg/injection, schedule: Q07DX002 (ip), vehicle: Klucel (hydroxypropylcellulose) (HPC))?
**A.** 81 % of control

**Q.** And the T/C (endpoint: median tumor weight (est.), dose: 16.0 mg/kg/injection, schedule: Q07DX002 (ip), vehicle: Klucel (hydroxypropylcellulose) (HPC))?
**A.** 108 % of control

**Q.** And the T/C (endpoint: median tumor weight (est.), dose: 32.0 mg/kg/injection, schedule: Q07DX002 (ip), vehicle: Klucel (hydroxypropylcellulose) (HPC))?
**A.** 115 % of control

**Q.** `Nc1ncn(C2OC(CO)C(O)C2O)c(=O)n1` (stereo not given) was tested. Which T/C (endpoint: median tumor weight (est.), dose: 4.0 mg/kg/injection, schedule: Q07DX002 (ip), vehicle: saline) did it give?
**A.** 60 % of control

**Q.** And the T/C (endpoint: median tumor weight (est.), dose: 8.0 mg/kg/injection, schedule: Q07DX002 (ip), vehicle: saline)?
**A.** 82 % of control

**Q.** What about the T/C (endpoint: median tumor weight (est.), dose: 16.0 mg/kg/injection, schedule: Q07DX002 (ip), vehicle: saline) of the same compound?
**A.** 33 % of control

**Q.** And the T/C (endpoint: median tumor weight (est.), dose: 32.0 mg/kg/injection, schedule: Q07DX002 (ip), vehicle: saline)?
**A.** 6 % of control

**Q.** And the T/C (endpoint: median tumor weight (est.), dose: 64.0 mg/kg/injection, schedule: Q07DX002 (ip), vehicle: saline)?
**A.** 2 % of control

**Q.** `CCC1=C2C(=O)c3ccccc3C2=C(C)S(=O)(=O)O1` was tested. Which T/C [7] did it give?
**A.** 153 % of control

**Q.** How did the T/C (endpoint: median tumor weight (est.), dose: 25.0 mg/kg/injection, schedule: Q07DX002 (ip), vehicle: suspension in saline) turn out when `O=c1[nH]cnc2[nH]ncc12` was run?
**A.** 83 % of control

**Q.** And the T/C [5]?
**A.** 69 % of control

**Q.** And the T/C [6]?
**A.** 88 % of control

**Q.** With `CCOC(=O)c1c[nH]c2oc(/C=N/N3CC(CN4CCOCC4)OC3=O)cc2c1=O` (stereo not given) as the compound, how does the T/C (endpoint: median tumor weight (est.), dose: 150.0 mg/kg/injection, schedule: Q07DX002 (ip), vehicle: other) read?
**A.** 83 % of control

**Q.** And the T/C (endpoint: median tumor weight (est.), dose: 300.0 mg/kg/injection, schedule: Q07DX002 (ip), vehicle: other)?
**A.** 56 % of control

**Q.** And the T/C (endpoint: median tumor weight (est.), dose: 600.0 mg/kg/injection, schedule: Q07DX002 (ip), vehicle: other)?
**A.** 29 % of control

**Q.** With `OCC(O)C(O)C(O)C(O)CO` (stereo not given) as the compound, how does the T/C (endpoint: median tumor weight (est.), dose: 75.0 mg/kg/injection, schedule: Q07DX002 (ip), vehicle: saline) read?
**A.** 90 % of control

**Q.** What about the T/C (endpoint: median tumor weight (est.), dose: 150.0 mg/kg/injection, schedule: Q07DX002 (ip), vehicle: saline) of the same compound?
**A.** 66 % of control

**Q.** And the T/C (endpoint: median tumor weight (est.), dose: 300.0 mg/kg/injection, schedule: Q07DX002 (ip), vehicle: saline)?
**A.** 111 % of control

**Q.** What about the T/C (endpoint: median tumor weight (est.), dose: 600.0 mg/kg/injection, schedule: Q07DX002 (ip), vehicle: saline) of the same compound?
**A.** 92 % of control

**Q.** And the T/C (endpoint: median tumor weight (est.), dose: 1200.0 mg/kg/injection, schedule: Q07DX002 (ip), vehicle: saline)?
**A.** 86 % of control

**Q.** With `CCC/C=C/C=C/C(=O)OC1/C(=C/C(=O)OC)CC2CC(C(C)O)OC(=O)CC(O)CC3CC(OC(C)=O)C(C)(C)C(O)(CC4C/C(=C/C(=O)OC)CC(/C=C/C(C)(C)C1(O)O2)O4)O3` (stereo not given) as the compound, how does the T/C (endpoint: median tumor weight (est.), dose: 37.5 micrograms/kg/injection, schedule: Q07DX002 (ip), vehicle: saline + alcohol) read?
**A.** 191 % of control

**Q.** And the T/C (endpoint: median tumor weight (est.), dose: 300.0 micrograms/kg/injection, schedule: Q07DX002 (ip), vehicle: saline + alcohol)?
**A.** 74 % of control

**Q.** `CCCCCC(O)C1C(=O)OC(C)C(O)/C=C/C=C/C=C/C=C\C=C(\C)C(O)CC(O)CC(O)CC(O)CC(O)CC(O)CC1O` (stereo not given) was tested. Which T/C (endpoint: median tumor weight (est.), dose: 6.25 mg/kg/injection, schedule: Q07DX002 (ip), vehicle: water) did it give?
**A.** 81 % of control

**Q.** What about the T/C (endpoint: median tumor weight (est.), dose: 12.5 mg/kg/injection, schedule: Q07DX002 (ip), vehicle: water) of the same compound?
**A.** 103 % of control

**Q.** What about the T/C (endpoint: median tumor weight (est.), dose: 25.0 mg/kg/injection, schedule: Q07DX002 (ip), vehicle: water) of the same compound?
**A.** 77 % of control

**Q.** And the T/C [8]?
**A.** 69 % of control

**Q.** And the T/C [9]?
**A.** 62 % of control

**Q.** For `C[C@@]1(CO)[C@H](O)CC[C@@]2(C)[C@H]1CC[C@H]1C[C@@H]3C[C@@]12CC[C@@]3(O)COC(=O)CN`, which T/C (endpoint: median tumor weight (est.), dose: 0.4 mg/kg/injection, schedule: Q07DX002 (ip), vehicle: saline + alcohol) is on record?
**A.** 61 % of control

**Q.** And the T/C (endpoint: median tumor weight (est.), dose: 0.8 mg/kg/injection, schedule: Q07DX002 (ip), vehicle: saline + alcohol)?
**A.** 88 % of control

**Q.** And the T/C (endpoint: median tumor weight (est.), dose: 1.6 mg/kg/injection, schedule: Q07DX002 (ip), vehicle: saline + alcohol)?
**A.** 54 % of control

**Q.** And the T/C (endpoint: median tumor weight (est.), dose: 3.2 mg/kg/injection, schedule: Q07DX002 (ip), vehicle: saline + alcohol)?
**A.** 63 % of control

**Q.** What about the T/C (endpoint: median tumor weight (est.), dose: 6.4 mg/kg/injection, schedule: Q07DX002 (ip), vehicle: saline + alcohol) of the same compound?
**A.** 106 % of control

**Q.** Which results are given for `Oc1cccc2ccccc12`?
**A.** T/C [8]: 91 % of control; T/C [9]: 87 % of control; T/C (endpoint: median tumor weight (est.), dose: 200.0 mg/kg/injection, schedule: Q07DX002 (ip), vehicle: water): 76 % of control

**Q.** With `Nc1nc(N)c2c(ccc3c2ccn3Cc2cccc([N+](=O)[O-])c2)n1` as the compound, how does the T/C (endpoint: median tumor weight (est.), dose: 3.13 mg/kg/injection, schedule: Q07DX002 (ip), vehicle: saline with Tween-80) read?
**A.** 61 % of control

**Q.** And the T/C [7]?
**A.** 102 % of control

**Q.** And the T/C (endpoint: median tumor weight (est.), dose: 12.5 mg/kg/injection, schedule: Q07DX002 (ip), vehicle: saline with Tween-80)?
**A.** 85 % of control

**Q.** And the T/C [1]?
**A.** 57 % of control

**Q.** And the T/C [2]?
**A.** 12 % of control

**Q.** Which results are given for `COC12C(COC(=O)NCCO)C3=C(C(=O)C(C)=C(N)C3=O)N1CC1NC12` (stereo not given)?
**A.** T/C (endpoint: median tumor weight (est.), dose: 12.5 mg/kg/injection, schedule: Q07DX002 (ip), vehicle: Klucel (hydroxypropylcellulose) (HPC)): 65 % of control; T/C (endpoint: median tumor weight (est.), dose: 25.0 mg/kg/injection, schedule: Q07DX002 (ip), vehicle: Klucel (hydroxypropylcellulose) (HPC)): 50 % of control; T/C (endpoint: median tumor weight (est.), dose: 50.0 mg/kg/injection, schedule: Q07DX002 (ip), vehicle: Klucel (hydroxypropylcellulose) (HPC)): 12 % of control
